Starch Maleate Half Ester, Crosslinked with 0.08 Eq. Triglycol Dichloride [Example 21]
toxicity for microorganisms (microorganisms): no toxicity | toxic product destroying the aquatic flora (Daphnia magna): no toxic product have been detected
